Assay results as given in patent US10697020B2, “MicroRNA-129 as a biomarker for colorectal cancer” (THE RESEARCH FOUNDATION FOR THE STATE UNIVERSITY OF NEW YORK, priority 2013, dated 2020).
Read-outs that look alike come from different tables or passages of the source.

Tests used:
HCT116 cells [1] = assay: 5-FU treatment and cytotoxicity assay (WST-1); format: cell-based; details: Homo sapiens, HCT-116, 72 h, read-out: IC50 (50% growth inhibition, WST-1)
Description: Twenty-four hours after transfection, HCT116 cells were plated in 96-well plates at 2×10^3 cells per well in triplicates in 100 μl of medium. After 24 hours, fresh medium containing 5-FU alone (ranged from 1 to 4 μM) or miR-129 precursor alone (ranged from 10 nM to 40 nM) or 5-FU and miR-129 together (at a constant ratio 1:10, with increasing concentrations of both compounds) were added, and cells were cultured for an additional 72 hours. Cell viability was measured using the WST-1 assay, and concentration-dependent curves were generated based on the cell viability. The combination index was calculated by CompuSyn software. See, Chou T C et al. (2007).

HCT116 cells [2] = assay: Colorectal cancer xenografts (HCT116) in NOD/SCID mice, tumor volume; format: in vivo; details: day 24
Description: When solid and palpable tumors with an average volume of 100-150 mm^3 were formed (at day 14), mice were randomly separated into four groups such that each group was treated either with negative control miRNA, miR-129 alone, 5-FU alone or miR-129 and 5-FU together. The miRNAs were complexed with siPORTamine and injected intratumorally while 5-FU (50 μg g^−1) was injected systemically via the tail vein. All injections were provided in 3-day intervals for a total of three times before the tumors were collected at day 24. […] Importantly, despite the overexpression, the expression levels of miR-129 copy number remained within the physiological range (less than 20 copies/cell based on cycle threshold value at 30, which is equal to the expression of miR-129 in normal colon mucosa). Moreover, the control tumor xenografts had no miR-129 expression (cycle threshold value at 35).
Ten-twelve week old NOD/SCID mice (Jackson Laboratories, Bar Harbor, […]., USA) were used for tumor implantation. All animal procedures were approved by the Stony Brook University Institutional Animal Care and Use Committee (IACUC). The tumor implantation and miRNA injection protocol was modified from Trang et al. (see Trang P., et al., Oncogene. (2010) 29(11):1580-7). The mice were anesthetized by isoflurane inhalation. HCT116 cells were subcutaneously injected into the lower back areas of the mice using 2.5×10^6 cells in 100 μl McCoy's 5A with 50% matrigel (BD Biosciences). The tumor size was measured using a caliper and tumor volume was calculated using the formula V=length×width^2/2. When tumor volumes reach 100-150 mm^3 at day 14 post-injection, the mice were randomly assigned into four groups. For the first two groups, 10 μM negative miRNA or miR-129 precursor (Ambion) complexed with 1.6 μl siPORTAmine (Ambion) in 50 μl McCoy's 5A was injected into the tumors every three days. For the third group, 5-FU (Sigma-Aldrich) was injected at 50 μg/g via the tail vein every three days. Finally, for the last group, both miR-129 precursor and 5-FU were injected as described above. The mice were euthanized on day 24 post-injection by CO2 inhalation, and tumors were dissected out for RNA isolation.

O=c1[nH]cc(F)c(=O)[nH]1 [5-FU, 5-fluoro-1H-pyrimidine-2,4-dione, reference compound]
IC50 (HCT116 cells [1]; 5-FU alone): 2.3 µM | IC50 (HCT116 cells [1]; 5-FU when combined with miR-129 (fixed ratio 1:10)): 0.6 µM | inhibition of tumor growth (in words) (HCT116 cells [2]; HCT116 xenograft, compared with negative miRNA or single agents): strong inhibitory effect | average tumor volume, % of the control group (HCT116 cells [2]; treated days 14, 17, 20, miRNA intratumoral with siPORTamine, 5-FU 50 μg/g tail vein, control negative miRNA): 48.4%
